In ChEMBL document CHEMBL4507276 (2021):

Legend:
[1] = biological target: GABA-A receptor; anion channel (Rattus norvegicus) (UniProt O09028+P15431+P18506+P18508+P19969+P20236+P23574+P23576+P28471+P28473+P30191+P62813+P63079+P63138+Q91ZM7+Q9ES14); conditions: Compound concentration 10.0 uM
[2] = biological target: Protein kinase C epsilon type (Homo sapiens) (UniProt Q02156); test: PRKCE Invitrogen selectivity data (BI); conditions: Compound concentration 3.0 uM
[3] = biological target: Angiotensin-converting enzyme 2 (Homo sapiens) (UniProt Q9BYF1); test: ACE-2(HU) Cerep selectivity data (BI); conditions: Compound concentration 20.0 uM
Sequence of Angiotensin-converting enzyme 2 (Homo sapiens) (Q9BYF1 18-805 limits assumed): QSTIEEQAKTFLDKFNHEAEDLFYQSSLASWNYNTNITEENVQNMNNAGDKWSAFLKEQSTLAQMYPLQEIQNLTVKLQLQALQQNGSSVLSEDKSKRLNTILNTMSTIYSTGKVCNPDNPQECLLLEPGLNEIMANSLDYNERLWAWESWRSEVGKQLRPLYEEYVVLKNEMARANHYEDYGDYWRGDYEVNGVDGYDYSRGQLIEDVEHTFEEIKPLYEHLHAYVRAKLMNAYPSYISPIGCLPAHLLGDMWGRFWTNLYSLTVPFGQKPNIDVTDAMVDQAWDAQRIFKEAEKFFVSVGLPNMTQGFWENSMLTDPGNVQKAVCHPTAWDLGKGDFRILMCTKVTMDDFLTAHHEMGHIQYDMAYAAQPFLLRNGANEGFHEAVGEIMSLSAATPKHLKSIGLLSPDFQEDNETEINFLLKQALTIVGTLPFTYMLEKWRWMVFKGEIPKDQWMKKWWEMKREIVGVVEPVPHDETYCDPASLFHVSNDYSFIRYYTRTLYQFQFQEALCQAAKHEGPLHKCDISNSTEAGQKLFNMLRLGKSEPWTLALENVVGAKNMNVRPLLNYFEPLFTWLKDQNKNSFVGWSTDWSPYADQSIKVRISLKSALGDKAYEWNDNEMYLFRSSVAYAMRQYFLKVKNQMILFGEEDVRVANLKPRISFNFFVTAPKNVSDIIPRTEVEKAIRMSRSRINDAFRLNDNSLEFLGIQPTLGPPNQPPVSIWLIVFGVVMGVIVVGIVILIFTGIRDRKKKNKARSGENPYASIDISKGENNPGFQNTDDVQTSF

[4] = biological target: T1, Alpha-1A adrenergic receptor (Homo sapiens) (UniProt P35348); test: ALPHA1AH_ANTAG Cerep selectivity data (BI); conditions: filed as antagonist, Compound concentration 20.0 uM
T1 sequence (whole entry): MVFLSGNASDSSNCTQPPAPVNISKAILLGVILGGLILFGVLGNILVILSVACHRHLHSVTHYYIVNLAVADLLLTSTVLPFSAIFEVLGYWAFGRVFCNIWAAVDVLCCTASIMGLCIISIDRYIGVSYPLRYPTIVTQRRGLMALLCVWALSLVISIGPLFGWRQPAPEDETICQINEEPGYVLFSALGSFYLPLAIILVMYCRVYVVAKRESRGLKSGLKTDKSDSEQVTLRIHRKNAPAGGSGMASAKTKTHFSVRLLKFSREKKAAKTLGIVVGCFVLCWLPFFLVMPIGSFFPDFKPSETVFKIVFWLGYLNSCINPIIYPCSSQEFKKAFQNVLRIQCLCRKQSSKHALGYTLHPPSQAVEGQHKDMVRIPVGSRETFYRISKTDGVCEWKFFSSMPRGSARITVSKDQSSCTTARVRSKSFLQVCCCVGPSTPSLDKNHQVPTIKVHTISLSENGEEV

[5] = biological target: SRSF protein kinase 1 (Homo sapiens) (UniProt Q96SB4); test: SRPK1 Invitrogen selectivity data (BI); conditions: Compound concentration 3.0 uM
Sequence of SRSF protein kinase 1 (Homo sapiens) (Q96SB4 whole entry): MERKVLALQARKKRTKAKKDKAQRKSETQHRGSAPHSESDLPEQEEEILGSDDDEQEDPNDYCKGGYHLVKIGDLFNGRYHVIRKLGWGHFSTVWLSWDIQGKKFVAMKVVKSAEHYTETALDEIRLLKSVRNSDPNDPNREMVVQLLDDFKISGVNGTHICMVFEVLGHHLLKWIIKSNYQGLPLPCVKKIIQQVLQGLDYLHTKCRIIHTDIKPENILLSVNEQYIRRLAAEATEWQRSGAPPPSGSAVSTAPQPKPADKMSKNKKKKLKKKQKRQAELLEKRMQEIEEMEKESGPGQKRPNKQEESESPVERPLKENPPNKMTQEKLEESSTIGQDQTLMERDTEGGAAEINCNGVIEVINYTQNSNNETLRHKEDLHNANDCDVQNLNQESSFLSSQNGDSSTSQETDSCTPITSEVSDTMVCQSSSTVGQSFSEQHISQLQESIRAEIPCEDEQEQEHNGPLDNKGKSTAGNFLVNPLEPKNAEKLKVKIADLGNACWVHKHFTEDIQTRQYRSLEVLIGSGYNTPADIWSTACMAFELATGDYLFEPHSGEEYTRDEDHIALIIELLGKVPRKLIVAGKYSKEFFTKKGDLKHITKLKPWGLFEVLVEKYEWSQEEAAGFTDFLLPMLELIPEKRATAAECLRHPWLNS

[6] = biological target: Peroxisome proliferator-activated receptor gamma (Homo sapiens) (UniProt P37231); test: PPARG/H AG Cerep selectivity data (BI); conditions: filed as agonist, Compound concentration 20.0 uM
Sequence of Peroxisome proliferator-activated receptor gamma (Homo sapiens) (P37231 whole entry): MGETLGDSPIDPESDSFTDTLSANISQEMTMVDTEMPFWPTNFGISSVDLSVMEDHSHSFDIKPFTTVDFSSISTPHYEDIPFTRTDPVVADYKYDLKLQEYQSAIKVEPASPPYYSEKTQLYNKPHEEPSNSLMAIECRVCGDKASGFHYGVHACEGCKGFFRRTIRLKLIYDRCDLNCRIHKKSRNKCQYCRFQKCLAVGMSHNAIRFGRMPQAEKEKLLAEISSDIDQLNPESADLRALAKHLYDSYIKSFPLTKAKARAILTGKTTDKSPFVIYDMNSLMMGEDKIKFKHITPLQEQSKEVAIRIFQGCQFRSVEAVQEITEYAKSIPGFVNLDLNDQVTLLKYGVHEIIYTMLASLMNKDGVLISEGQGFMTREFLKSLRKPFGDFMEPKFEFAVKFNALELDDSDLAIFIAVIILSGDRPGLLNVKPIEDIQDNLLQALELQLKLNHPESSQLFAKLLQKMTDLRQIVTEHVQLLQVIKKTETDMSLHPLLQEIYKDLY

[7] = biological target: L-type Ca2+ channel (verapamil site), Cav1.2 alpha-1C (Rattus norvegicus, UniProt P22002); test: CA+/VERSI/R Cerep selectivity data (BI); parameters: mode of action inhibitor; conditions: rat brain, probe [3H](-)D888, compound concentration 20 uM, read-out: % Ctrl
Sequence of L-type Ca2+ channel (verapamil site), Cav1.2 alpha-1C (P22002 whole entry): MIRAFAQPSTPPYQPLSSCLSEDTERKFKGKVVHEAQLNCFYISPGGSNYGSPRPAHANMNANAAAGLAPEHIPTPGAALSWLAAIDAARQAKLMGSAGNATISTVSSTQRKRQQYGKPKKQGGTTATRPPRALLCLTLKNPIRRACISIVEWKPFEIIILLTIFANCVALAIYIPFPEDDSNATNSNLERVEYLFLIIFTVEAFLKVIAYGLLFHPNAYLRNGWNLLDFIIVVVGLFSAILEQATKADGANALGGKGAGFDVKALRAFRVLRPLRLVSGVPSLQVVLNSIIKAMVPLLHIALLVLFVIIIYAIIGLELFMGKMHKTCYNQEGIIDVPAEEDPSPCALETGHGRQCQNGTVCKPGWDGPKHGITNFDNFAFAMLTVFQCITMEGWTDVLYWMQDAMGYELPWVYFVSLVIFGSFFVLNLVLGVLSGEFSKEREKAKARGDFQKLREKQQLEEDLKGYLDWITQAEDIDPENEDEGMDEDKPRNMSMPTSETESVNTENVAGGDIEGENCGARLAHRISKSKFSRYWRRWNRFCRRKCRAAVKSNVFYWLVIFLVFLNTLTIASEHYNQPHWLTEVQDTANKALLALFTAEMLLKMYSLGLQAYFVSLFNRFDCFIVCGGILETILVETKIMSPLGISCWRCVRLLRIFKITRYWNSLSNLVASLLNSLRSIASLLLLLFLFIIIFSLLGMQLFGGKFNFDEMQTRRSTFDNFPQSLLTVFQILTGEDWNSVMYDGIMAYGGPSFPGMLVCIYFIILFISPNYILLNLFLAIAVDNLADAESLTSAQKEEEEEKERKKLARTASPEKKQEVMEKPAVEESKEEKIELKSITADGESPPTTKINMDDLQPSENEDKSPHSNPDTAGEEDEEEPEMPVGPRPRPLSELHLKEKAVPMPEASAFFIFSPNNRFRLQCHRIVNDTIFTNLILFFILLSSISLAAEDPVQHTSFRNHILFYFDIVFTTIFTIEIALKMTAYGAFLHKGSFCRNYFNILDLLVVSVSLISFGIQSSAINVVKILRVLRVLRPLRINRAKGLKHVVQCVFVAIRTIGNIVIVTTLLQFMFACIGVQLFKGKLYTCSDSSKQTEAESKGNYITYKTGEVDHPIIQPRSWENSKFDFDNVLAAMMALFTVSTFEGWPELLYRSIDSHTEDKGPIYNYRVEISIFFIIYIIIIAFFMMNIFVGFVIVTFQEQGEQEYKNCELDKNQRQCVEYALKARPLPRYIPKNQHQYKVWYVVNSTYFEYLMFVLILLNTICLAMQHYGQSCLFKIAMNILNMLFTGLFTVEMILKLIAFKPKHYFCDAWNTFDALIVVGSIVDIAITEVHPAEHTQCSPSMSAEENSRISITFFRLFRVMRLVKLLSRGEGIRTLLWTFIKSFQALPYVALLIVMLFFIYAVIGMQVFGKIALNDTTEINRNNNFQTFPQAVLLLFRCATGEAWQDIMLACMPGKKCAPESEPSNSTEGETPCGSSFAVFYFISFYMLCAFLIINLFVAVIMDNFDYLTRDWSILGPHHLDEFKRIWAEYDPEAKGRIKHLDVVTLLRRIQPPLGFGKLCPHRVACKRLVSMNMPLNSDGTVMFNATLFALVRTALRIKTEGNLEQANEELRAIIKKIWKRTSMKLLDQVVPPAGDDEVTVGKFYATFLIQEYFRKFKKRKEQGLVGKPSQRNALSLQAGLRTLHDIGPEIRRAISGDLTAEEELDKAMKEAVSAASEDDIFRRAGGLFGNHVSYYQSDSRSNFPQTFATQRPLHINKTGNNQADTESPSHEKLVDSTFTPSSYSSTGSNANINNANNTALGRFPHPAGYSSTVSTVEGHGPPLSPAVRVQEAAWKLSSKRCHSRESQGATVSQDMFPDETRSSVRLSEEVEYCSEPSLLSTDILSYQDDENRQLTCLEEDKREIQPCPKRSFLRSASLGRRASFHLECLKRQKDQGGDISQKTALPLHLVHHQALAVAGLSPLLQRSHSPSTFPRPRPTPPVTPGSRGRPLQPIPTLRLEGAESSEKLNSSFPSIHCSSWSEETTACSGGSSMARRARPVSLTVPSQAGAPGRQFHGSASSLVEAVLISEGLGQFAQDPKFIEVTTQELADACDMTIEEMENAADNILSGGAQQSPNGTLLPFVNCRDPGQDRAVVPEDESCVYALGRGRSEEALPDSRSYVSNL

[8] = biological target: 5-hydroxytryptamine receptor 4 (Homo sapiens) (UniProt Q13639); test: 5HT4EH_ANTAG Cerep selectivity data (BI); conditions: filed as antagonist, Compound concentration 20.0 uM
Sequence of 5-hydroxytryptamine receptor 4 (Homo sapiens) (Q13639 whole entry): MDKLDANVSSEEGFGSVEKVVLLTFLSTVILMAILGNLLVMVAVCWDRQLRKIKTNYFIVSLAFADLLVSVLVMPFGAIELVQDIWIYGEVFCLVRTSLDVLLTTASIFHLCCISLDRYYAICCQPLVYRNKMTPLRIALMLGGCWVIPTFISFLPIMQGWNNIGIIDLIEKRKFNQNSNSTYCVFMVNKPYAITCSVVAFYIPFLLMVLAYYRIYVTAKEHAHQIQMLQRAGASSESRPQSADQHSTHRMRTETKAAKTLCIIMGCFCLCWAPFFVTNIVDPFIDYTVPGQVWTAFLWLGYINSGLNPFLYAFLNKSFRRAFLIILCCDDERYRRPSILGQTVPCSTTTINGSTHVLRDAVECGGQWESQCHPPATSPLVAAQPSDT

[9] = biological target: T2, Inhibitor of nuclear factor kappa-B kinase subunit beta (Homo sapiens) (UniProt O14920); test: IKBKB Invitrogen selectivity data (BI); conditions: Compound concentration 3.0 uM
T2 sequence (whole entry): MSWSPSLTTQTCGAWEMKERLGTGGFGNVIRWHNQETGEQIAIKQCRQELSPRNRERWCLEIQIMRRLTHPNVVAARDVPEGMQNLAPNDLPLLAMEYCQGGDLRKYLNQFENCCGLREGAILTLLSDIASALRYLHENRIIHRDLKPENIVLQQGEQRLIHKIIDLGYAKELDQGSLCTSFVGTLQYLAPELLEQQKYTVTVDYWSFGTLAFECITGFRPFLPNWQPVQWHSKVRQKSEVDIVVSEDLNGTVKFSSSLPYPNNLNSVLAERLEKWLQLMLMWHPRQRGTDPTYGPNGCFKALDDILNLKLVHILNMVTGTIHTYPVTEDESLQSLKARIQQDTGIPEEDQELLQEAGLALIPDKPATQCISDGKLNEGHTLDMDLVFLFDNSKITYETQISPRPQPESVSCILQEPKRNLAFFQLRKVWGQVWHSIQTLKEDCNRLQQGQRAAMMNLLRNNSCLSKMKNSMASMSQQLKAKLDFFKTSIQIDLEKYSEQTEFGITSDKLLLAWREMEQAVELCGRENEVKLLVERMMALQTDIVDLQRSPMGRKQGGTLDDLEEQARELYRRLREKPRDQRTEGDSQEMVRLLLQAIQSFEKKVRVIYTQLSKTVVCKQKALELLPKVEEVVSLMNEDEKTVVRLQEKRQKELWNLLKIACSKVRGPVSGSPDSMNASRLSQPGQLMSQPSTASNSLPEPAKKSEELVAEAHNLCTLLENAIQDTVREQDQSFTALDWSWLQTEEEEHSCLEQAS

[10] = biological target: MAP kinase-activated protein kinase 2 (Homo sapiens) (UniProt P49137); test: MAPKAPK2 Invitrogen selectivity data (BI); conditions: Compound concentration 3.0 uM
Sequence of MAP kinase-activated protein kinase 2 (Homo sapiens) (P49137 whole entry, looked up): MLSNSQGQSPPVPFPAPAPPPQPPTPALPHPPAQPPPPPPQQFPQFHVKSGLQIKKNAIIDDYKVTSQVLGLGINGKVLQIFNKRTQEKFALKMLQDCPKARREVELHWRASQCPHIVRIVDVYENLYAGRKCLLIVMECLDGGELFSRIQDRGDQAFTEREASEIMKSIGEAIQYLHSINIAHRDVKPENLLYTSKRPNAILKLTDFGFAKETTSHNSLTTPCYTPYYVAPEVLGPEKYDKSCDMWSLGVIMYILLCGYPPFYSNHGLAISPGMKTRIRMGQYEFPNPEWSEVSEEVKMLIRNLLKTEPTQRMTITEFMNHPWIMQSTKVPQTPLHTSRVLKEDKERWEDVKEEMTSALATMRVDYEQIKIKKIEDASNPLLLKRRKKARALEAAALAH

[11] = biological target: T3, Tyrosine-protein kinase JAK3 (Homo sapiens) (UniProt P52333); test: JAK3 Invitrogen selectivity data (BI); conditions: Compound concentration 3.0 uM
T3 sequence (whole entry): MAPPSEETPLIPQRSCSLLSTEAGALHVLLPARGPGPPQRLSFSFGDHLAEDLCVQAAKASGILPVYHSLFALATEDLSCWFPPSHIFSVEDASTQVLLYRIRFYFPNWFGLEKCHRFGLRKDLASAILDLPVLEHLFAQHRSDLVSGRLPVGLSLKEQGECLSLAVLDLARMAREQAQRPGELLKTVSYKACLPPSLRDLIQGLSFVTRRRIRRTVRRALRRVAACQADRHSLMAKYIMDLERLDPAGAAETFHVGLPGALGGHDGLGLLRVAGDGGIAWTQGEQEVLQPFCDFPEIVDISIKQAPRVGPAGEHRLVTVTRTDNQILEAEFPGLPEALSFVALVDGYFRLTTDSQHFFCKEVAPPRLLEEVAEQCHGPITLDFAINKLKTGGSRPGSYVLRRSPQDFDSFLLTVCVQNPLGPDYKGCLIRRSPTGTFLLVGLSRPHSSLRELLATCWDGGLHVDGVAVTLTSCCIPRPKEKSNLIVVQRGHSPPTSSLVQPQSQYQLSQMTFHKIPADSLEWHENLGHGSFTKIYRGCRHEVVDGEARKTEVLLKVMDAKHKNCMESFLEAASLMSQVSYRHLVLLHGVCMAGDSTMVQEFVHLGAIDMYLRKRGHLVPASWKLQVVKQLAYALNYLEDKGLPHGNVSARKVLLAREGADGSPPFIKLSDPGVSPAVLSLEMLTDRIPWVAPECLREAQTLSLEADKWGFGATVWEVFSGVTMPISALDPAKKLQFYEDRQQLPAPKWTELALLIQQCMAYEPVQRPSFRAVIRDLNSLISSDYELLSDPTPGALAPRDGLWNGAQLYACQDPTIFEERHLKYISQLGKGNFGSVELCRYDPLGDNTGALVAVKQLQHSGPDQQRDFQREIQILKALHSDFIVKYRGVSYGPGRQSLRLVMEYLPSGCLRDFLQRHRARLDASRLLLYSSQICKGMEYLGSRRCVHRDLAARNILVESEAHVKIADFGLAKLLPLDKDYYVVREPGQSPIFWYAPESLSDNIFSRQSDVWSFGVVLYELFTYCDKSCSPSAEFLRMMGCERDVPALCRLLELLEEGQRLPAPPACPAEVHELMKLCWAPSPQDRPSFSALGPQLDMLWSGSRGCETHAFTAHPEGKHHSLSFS

CN(C)C(=O)Cn1cc(-c2nc(C3(c4ccc(-c5cnc(N)nc5)cc4)CC3)no2)cn1 [BI 0153]
inhibition [1]: 6.54%

CN(C)C(=O)Cn1cc(-c2nc([C@@](C)(c3ccc(-c4cnc(N)nc4)cc3)C3CC3)no2)cn1 [BI 665915]
residual activity [2]: 86.5%
residual activity [3]: 132%
residual activity [4]: 99%
residual activity [5]: 97.5%
residual activity [6]: 93%
activity at 20 µM [7]: 90% (not active)
residual activity [8]: 111%
residual activity [9]: 96.5%
residual activity [10]: 96.5%
residual activity [11]: 96.5%
